Reference: patent US20210386737A1, “DIHYDROIMIDAZOPYRAZINONE COMPOUND, COMPOSITION INCLUDING SAME, AND USE THEREOF” (priority 2018, published 2021)

Columns and labels:
[1] = target: T1, ERK2 kinase (Homo sapiens, UniProt P28482); assay: ERK2 kinase inhibition (ADP-Glo); format: biochemical; settings: ADP-Glo kit, 20 minutes reaction at room temperature
T1 construct: purchased Promega V1961
From the text: ERK2 kinase (Promega, catalog No. V1961), RET (V804M), Active (Signalchem, catalog No, R02-12GG), ADP-Glo™ kit (Promega, catalog No. V9102), GDC-0994 (MCE, catalog No. HY-15947), ATP (Promega, catalog No. V910B), DMSO (Sigma, catalog No. D8418), DTT (Invitrogen, catalog No. P2325), 384-well plate (Greiner, catalog No. 784075), polypropylene 384-well plate (Labcyte, catalog No. P-05525-BC), polypropylene 96-well plate (Nunc, catalog No. 249944), plate shaker (Thermo, catalog No. 4625-1 CECN/THZ Q), centrifuge (Eppendorf, catalog No. 5810R), multilabel ELISA reader Envision 2104 multi-label Reader (PerkinElmer, catalog No. 74785), Echo acoustic dispenser (Labcyte, catalog No. 550).
Compound formulation: The test compounds were dissolved in DMSO to prepare a 10 mM stock solution. Then, the stock solution was diluted 10 times with a 3-fold gradient. When addition, 10-fold dilution was made with buffer solution.
ERK2 kinase assay: In 1× kinase buffer solution, ERK2 kinase was mixed with pre-formulated and diluted compounds of different concentrations for 10 minutes in duplicate for each concentration. The corresponding substrate and ATP were added thereto, and reacted at room temperature for 20 minutes (both a negative and a positive control were set, wherein the negative is blank control, and the positive control is GDC-0994). Detection reagent was added after the reaction is complete (reagent in ADP-Glo™ kit), and after 40 minutes of incubation at room temperature, Envision 2104 multi-label Reader ELISA reader was used for detection of enzyme activities under the presence of compounds of the present disclosure with different concentrations, and the inhibitory activities of different concentrations of compounds on enzyme activity were calculated. GraphPad Prism 6.0 software was used for data analysis, nonlinear curve regression was used to fit the data to get the dose-response curve, thereby IC50 values were calculated.

[2] = system: phospho-p90RSK in A375 cell line; assay: A375 cell assay (phospho-p90RSK sandwich ELISA); format: cell-based; settings: Homo sapiens, A-375; inhibition of phospho-p90RSK, A375 cells (BRAF V600E), 4 hours incubation
Description: The cells in the logarithmic growth phase were taken and the trypan blue exclusion method was used to detect the cell viability to ensure that the cell viability is above 90%. The cell concentration was adjusted, and 150 μL cell suspension was added to a 96-well plate, which was incubated at 37° C., 5% CO2 for 16 h. The maximum concentration of the drug to be tested was 10 μM, which was diluted into 10 concentrations with a 3-fold gradient dilution, 50 μL drug solution was added to each well of the 96-well plate in duplicate, and incubation was continued for 4 hours. After removing the medium, 0.2 ml cell lysis solution and […] were added to each well, which was incubated on ice for 30 mm, and centrifuged for 10 min at 4° C. to afford cell lysis solution. PathScan®Phospho-p90RSK (Thr359) Sandwich ELISA Kit (CST, catalog No. 91959C) was used for detecting the inhibitory rate of the compounds of the present disclosure on phospho-p90RSK, to each well 100 μL cell lysis solution was added, and incubated at 4° C. overnight. The plate was washed, added with 100 μL reconstituted Detection Antibody, and incubated at 37° C. for 1 h. The plate was washed, added with 100 μL reconstituted HRP-Linked secondary antibody, and incubated at 37° C. for 30 min. The plate was washed, added with 100 μL TMB Substrate, and after incubating at 25° C. for 30 min, 100 μL STOP Solution was added, and EnVision (Perkin Elmer 2104) was used to detect fluorescence value, and inhibitory rates under the effect of different concentrations of compounds were calculated. The calculation of IC50 was carried out using Prism Graphpad 8.0, software.
Phospho-p90RSK cell assay was conducted in A375 cell line, which has human malignant melanoma with BRAF V600E mutation that upregulates the MAPK pathway, and therefore has increased endogenous levels of phospho-ERK and phospho-p90RSK.

T1 sequence (P28482 whole entry): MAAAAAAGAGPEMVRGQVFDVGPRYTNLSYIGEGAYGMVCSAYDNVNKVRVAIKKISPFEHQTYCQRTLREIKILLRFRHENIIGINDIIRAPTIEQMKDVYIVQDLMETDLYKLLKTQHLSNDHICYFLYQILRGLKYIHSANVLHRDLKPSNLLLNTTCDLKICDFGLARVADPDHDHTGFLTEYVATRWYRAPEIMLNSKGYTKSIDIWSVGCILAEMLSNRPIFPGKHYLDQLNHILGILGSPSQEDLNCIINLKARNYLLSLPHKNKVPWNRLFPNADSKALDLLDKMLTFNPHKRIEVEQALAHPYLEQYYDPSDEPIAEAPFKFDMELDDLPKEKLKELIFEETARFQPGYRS

Structure (SMILES) | IC50 [1] | IC50 [2]
COC[C@H]1Cn2cc(-c3nc(Nc4ccnn4C)ncc3C)nc2C(=O)N1Cc1ccc(F)c(F)c1 [AZD0364, (R)-7-(3,4-difluorobenzyl)-6-(methoxymethyl)-2-(5-methyl-2-((1-methyl-1H-pyrazol-5-yl)amino)pyrimidin-4-yl)-6,7-dihydroimidazo[1,2-a]pyrazin-8(5H)-one, reference compound] | 4.01 nM | 38.7 nM
[2H]C([2H])([2H])n1nccc1Nc1ncc(C)c(-c2cn3c(n2)C(=O)N(Cc2ccc(F)c(F)c2)[C@@H](COC)C3)n1 [Compound I-1, (R)-7-(3,4-difluorobenzyl)-6-(methoxymethyl)-2-(5-methyl-2-((1-(methyl-d3)-1H-pyrazol-5-yl)amino)pyrimidin-4-yl)-6,7-dihydroimidazo[1,2-a]pyrazin-8(5H)-one] |  | 30.1 nM
[2H]C([2H])(c1ccc(F)c(F)c1)N1C(=O)c2nc(-c3nc(Nc4ccnn4C([2H])([2H])[2H])ncc3C)cn2C[C@@H]1COC [Compound I-3, (R)-7-((3,4-difluorophenyl)methyl-d2)-6-(methoxymethyl)-2-(5-methyl-2-((1-(methyl-d3)-1H-pyrazol-5-yl)amino)pyrimidin-4-yl)-6,7-dihydroimidazo[1,2-a]pyrazin-8(5H)-one] | 3.31 nM | 34.6 nM
[2H]C([2H])([2H])OC[C@H]1Cn2cc(-c3nc(Nc4ccnn4C)ncc3C)nc2C(=O)N1Cc1ccc(F)c(F)c1 [Compound I-4-1, (R)-7-(3,4-difluorobenzyl)-6-((methoxy-d3)-methyl)-2-(5-methyl-2-((1-methyl-1H-pyrazol-5-yl)amino)pyrimidin-4-yl)-6,7-dihydroimidazo[1,2-a]pyrazin-8(5H)-one] | 3.09 nM | 24.9 nM
[2H]C([2H])([2H])OC[C@H]1Cn2cc(-c3nc(Nc4ccnn4C([2H])([2H])[2H])ncc3C)nc2C(=O)N1Cc1ccc(F)c(F)c1 [Compound I-5-1, (R)-7-(3,4-difluorobenzyl)-6-((methoxy-d3)-methyl)-2-(5-methyl-2-((1-(methyl-d3)-1H-pyrazol-5-yl)amino)pyrimidin-4-yl)-6,7-dihydroimidazo[1,2-a]pyrazin-8(5H)-one] | 2.75 nM | 29.6 nM
